For data set [1], the system named is SARS Coronavirus 2 recombinant with NanoLuc (SARS-CoV2-NLuc) in A549-hACE2 cells. Briefly: organism not typed. The class given is cell-based.
The nature of a further data set: Plasma stability. The class given is in vitro ADME. To be noted: 37° C., 2 μM substrate. Also noted: unit not given here. In outline:
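LC-MS (Q-Exactive, 5 ppm tolerance, 0.1% formic acid water/acetonitrile gradient) quantified compound in quenched aliquots. Aliquots were taken at 0.05, 0.5, 1, 2, 3 and 4 hr and quenched with internal-standard solution, and supernatants were diluted with water after centrifugation.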

Data set [2] relates to Respiratory syncytial virus recombinant with luciferase (RSV-Luc5) in HEp-2 cells. Briefly: microbe, parasite or virus in culture. Format: cell-based. To be noted: human respiratory syncytial virus, HEp-2, 72 h, read-out: RSV Hep2 EC50.
Data set [3] deals with Respiratory syncytial virus recombinant with luciferase (RSV-Luc5) in Normal Human Bronchial Epithelial (NHBE) cells. Briefly: microbe, parasite or virus in culture. The class given is cell-based.
Data set [4] in a line: GI S9 stability - no PMSF. The class given is in vitro ADME. Also on record: GIS9-HUMAN-NoPMSF T1/2: unit: min. To be noted: human intestinal S9, PMSF-free; for half-life at 2 µM: pH 7.4, read-out: GIS9-HUMAN-NoPMSF T1/2. The essentials:
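Stability was assessed by Q-Exactive LC-MS peak area ratios against internal standard, tracking loss of parent and appearance of nucleoside metabolite Reference Compound A. Incubations used 2 μM compound in 1 mg/mL intestinal S9 without PMSF (PBS, pH 7.4), with six samples taken over 120 min.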

A short description of data set [5]: CC50 MT4 cytotoxicity (Cell-Titer Glo). Format: cell-based. As to conditions: human. The essentials:
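CC50 values are the concentrations cutting viability by 50%, fitted by non-linear regression against untreated (100%) and 2 μM puromycin (0%) controls. Cell-Titer Glo luminescence measured after 4-5 days at 37° C exposure of uninfected MT-4 and HEp-2 cells to 3-fold dilutions spanning 15 nM to 100,000 nM.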

Data set [6] can be described thus: Stability in pH2 buffered solution. The class given is physicochemical. To be noted: pH2 phosphate buffer, 40° C., 24 h; Table N2. Here is the method: Example N: Stability in p112 and p117 Buffered Solutions
The aqueous stability of compounds over a time of 24 hours at 40° C. was assessed. Stability was determined in 50 mM phosphate buffered solutions at both pH2 and pH7, with 150 mM NaCl (to achieve isotonicity). 3-5 mg of solid compounds were added to 7 mL scintillation vials. Acetonitrile was added to each vial to produce a 1 mg/mL stock solution. Stock solutions were diluted to 50 μg/mL in either pH2 or pH7 phosphate buffer, to a volume of 1 mL. For each compound and pH condition, 50 μg/mL samples were prepped in duplicate. One sample was placed on the UPLC tray at 40° C. for analysis, and the second sample was placed in a 40° C. oven for storage. Sample preps for each compound were offset by 40 minutes to account for run time on UPLC.
Concentration timepoints were measured at 0, 3, 6, 9, and 12 hrs. After 24 hrs, samples in the 40° C. oven were removed and analyzed by UPLC.
In FIG. 2, % AN stands for % area normalized. That is, % AN is the area of the compound peak relative to the sum of areas of all the peaks in the UPLC chromatogram. For example, if there were two peaks, compound peak with an area of 9 and another peak with an area of 1, then the % AN of the compound peak would be 90%.

The test system of data set [7] is Caco-2 cells (clone C2BBe1). Briefly: CACO-2 permeability. Also noted: unit not given here. The class given is in vitro ADME. As to conditions: for DM Caco2 A to B: apical to basolateral, donor pH 6.5, receiver pH 7.4; for DM Caco2 B to A: basolateral to apical. The essentials:
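A-to-B and B-to-A flux measured by LC-MS/MS from receiver samples taken at 1 and 2 h, with donor sampled at 0 and 2 h and recovery checked. Buffers: pH 6.5 HBSS with 200 μM BNPP on the donor side, pH 7.4 with BSA on the receiver side. Monolayers were 21-day cultures, TEER-verified, in duplicate wells.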

Setting [8] is: A549, read-out: EC50 SARS CoV2 NanoLuc A549 384.
Where [9] appears, read: read-out: EC50 RSVFluc-NHBE 384 V2.

Read-outs that look alike come from different tables or passages of the source.

The text below walks through data of patent US12448383B2, “Compounds and methods for treatment of viral infections” (priority 2022, dated 2025).

With `CC(C)OC(=O)OC[C@H]1O[C@@](C#N)(c2ccc3c(NC(=O)C(C)C)ncnn23)[C@H](OC(=O)C(C)C)[C@@H]1OC(=O)C(C)C` [Compound 75, (2R,3R,4R,5R)-2-cyano-2-(4-isobutyramidopyrrolo[2,1-f][1,2,4]triazin-7-yl)-5-(((isopropoxycarbonyl)oxy)methyl)tetrahydrofuran-3,4-diyl bis(2-methylpropanoate)], the EC50 – broadly, the concentration at which the effect is half-maximal – in data set [1] (48 h, read-out: SARS-CoV2 EC50) amounted to 5060 nM; in data set [2], 1030 nM; in data set [3] (72 h, read-out: RSV NHBE EC50), 321 nM. Also, the “STA Human Plasma 37” value in “Plasma stability” was 277.1. Also, the half-life at 2 µM in data set [4] amounted to 0.884 min. Further, in [5], the CC50 – broadly, the concentration at which the toxic effect on the cells reaches its halfway point – was above 50000 nM. Also, in data set [6], the “pH 2 Stability 24 h % AN” value stood at 0 % AN.
For `CCCCCCCCCCCCCCCCCCOC(=O)OC[C@H]1O[C@@](C#N)(c2ccc3c(N)ncnn23)[C@H](O)[C@@H]1O` [Compound 126, ((2R,3S,4R,5R)-5-(4-aminopyrrolo[2,1-f][1,2,4]triazin-7-yl)-5-cyano-3,4-dihydroxytetrahydrofuran-2-yl)methyl octadecyl carbonate], the 50% effective concentration (EC50) in [1] (setting [8]) worked out at 1610 nM; in data set [3] (setting [9]), 517 nM. In “Plasma stability”, the “STA Human Plasma 37” value is listed as 79.1. Further, the log distribution coefficient (logD) – broadly, lipophilicity at a set pH, counting ionised and neutral species – in the data set “physchem” is above 5.7. Besides, the half-life at 2 µM in [4] was found to be 97.6 min. The “DM Caco2 A to B” value in data set [7] was determined as 0.01. The “DM Caco2 B to A” value in data set [7] is on record as 0.03. In addition, in [5], the CC50 came to 27700 nM.
Turning to `CC(C)(C)OC(=O)C(C)(C)OC(=O)OC[C@H]1O[C@@](C#N)(c2ccc3c(N)ncnn23)[C@H](O)[C@@H]1O` [Compound 138, tert-butyl 2-[[(2R,3S,4R,5R)-5-(4-aminopyrrolo[2,1-f][1,2,4]triazin-7-yl)-5-cyano-3,4-dihydroxy-tetrahydrofuran-2-yl]methoxycarbonyloxy]-2-methyl-propanoate], the results for the concentration giving a half-maximal response (EC50) in [1] (setting [8]) and in data set [3] (setting [9]) were 21200 nM and above 50000 nM, respectively. The compound also had a log distribution coefficient (logD) in the data set “physchem” of 2. The compound also returned a half-maximal cytotoxic concentration (CC50) in data set [5] above 50000 nM.
With `N#C[C@@]1(c2ccc3c(N)ncnn23)O[C@H](COC(=O)OC23CC(C(F)(F)F)(C2)C3)[C@@H](O)[C@H]1O` [Compound 139, [(2R,3S,4R,5R)-5-(4-aminopyrrolo[2,1-f][1,2,4]triazin-7-yl)-5-cyano-3,4-dihydroxy-tetrahydrofuran-2-yl]methyl [3-(trifluoromethyl)-1-bicyclo[1.1.1]pentanyl]carbonate], the “STA Human Plasma 37” value in the data set “Plasma stability” is reported as 150.07. For the same compound, the log distribution coefficient (logD) in “physchem” was 2.2. For the same compound, the EC50 in data set [3] (setting [9]) is 1640 nM. Moreover, the half-life at 2 µM in [4] was 1.37 min. In addition, in [7], the “DM Caco2 A to B” value was 0.99 and the “DM Caco2 B to A” value amounted to 12.98. Further, in data set [5], the CC50 is above 50000 nM.
For `N#C[C@@]1(c2ccc3c(N)ncnn23)O[C@H](COC(=O)OCCCCCCC(=O)O)[C@@H](O)[C@H]1O` [Compound 143, 7-(((((2R,3S,4R,5R)-5-(4-aminopyrrolo[2,1-f][1,2,4]triazin-7-yl)-5-cyano-3,4-dihydroxytetrahydrofuran-2-yl)methoxy)carbonyl)oxy)heptanoic acid], the EC50 in data set [1] (setting [8]) is 35400 nM; in data set [3] (setting [9]), above 50000 nM. For the same compound, in the data set “Plasma stability”, the “STA Human Plasma 37” value was 800.58. Further, the log distribution coefficient (logD) in “physchem” is below 0.3. In data set [4], the “GIS9-HUMAN-NoPMSF T1/2” value was found to be 789. Also, in data set [5], the CC50 was above 50000 nM.
Take `C[C@@H](OC(=O)OC[C@H]1O[C@@](C#N)(c2ccc3c(N)ncnn23)[C@H](O)[C@@H]1O)[C@@H](C(=O)OCC(C)(C)C)N(C)C` [Compound 147, neopentyl O-((((2R,3S,4R,5R)-5-(4-aminopyrrolo[2,1-f][1,2,4]triazin-7-yl)-5-cyano-3,4-dihydroxytetrahydrofuran-2-yl)methoxy)carbonyl)-N,N-dimethyl-L-threoninate]: the EC50 is 2850 nM in [1] (setting [8]) and 2470 nM in data set [3] (setting [9]). This compound gave a logD in “physchem” of 2.5. Further, the half-maximal cytotoxic concentration (CC50) in data set [5] is above 50000 nM.
On the same counts, the results for `C[C@@H](OC(=O)OC[C@H]1O[C@@](C#N)(c2ccc3c(N)ncnn23)[C@H](O)[C@@H]1O)[C@@H](C(=O)OCC1CCCC1)N(C)C` [Compound 148, (2S,3R)-cyclopentylmethyl 3-(((((2R,3S,4R,5R)-5-(4-aminopyrrolo[2,1-f][1,2,4]triazin-7-yl)-5-cyano-3,4-dihydroxytetrahydrofuran-2yl)methoxy)carbonyl)oxy)-2-(dimethylamino)butanoate] are 2050 nM, 2100 nM, 2.7 and above 50000 nM.
The like results for `C[C@@H](OC(=O)OC[C@H]1O[C@@](C#N)(c2ccc3c(N)ncnn23)[C@H](O)[C@@H]1O)[C@@H](C(=O)OC1CCCC1)N(C)C` [Compound 149, cyclopentyl O-((((2R,3S,4R,5R)-5-(4-aminopyrrolo[2,1-f][1,2,4]triazin-7-yl)-5-cyano-3,4-dihydroxytetrahydrofuran-2-yl)methoxy)carbonyl)-N,N-dimethyl-L-threoninate] were, in that order, 2420 nM, 2550 nM, 2.2 and above 50000 nM.
As to `C[C@@H](OC(=O)OC[C@H]1O[C@@](C#N)(c2ccc3c(N)ncnn23)[C@H](O)[C@@H]1O)[C@@H](C(=O)OC1CCOCC1)N(C)C` [Compound 150, tetrahydro-2H-pyran-4-yl O-((((2R,3S,4R,5R)-5-(4-aminopyrrolo[2,1-f][1,2,4]triazin-7-yl)-5-cyano-3,4-dihydroxytetrahydrofuran-2-yl)methoxy)carbonyl)-N,N-dimethyl-L-threoninate], the figures for the half-maximal effective concentration (EC50) in data set [1] (setting [8]) and in data set [3] (setting [9]) were 2370 nM and 3080 nM, respectively. This compound also registered a log distribution coefficient (logD) in “physchem” of 1.3. The CC50 in [5] was above 50000 nM.
On the same counts, the results for `CC(C)OC(=O)[C@H](COC(=O)OC[C@H]1O[C@@](C#N)(c2ccc3c(N)ncnn23)[C@H](O)[C@@H]1O)N(C)C` [Compound 151, isopropyl O-((((2R,3S,4R,5R)-5-(4-aminopyrrolo[2,1-f][1,2,4]triazin-7-yl)-5-cyano-3,4-dihydroxytetrahydrofuran-2-yl)methoxy)carbonyl)-N,N-dimethyl-L-serinate] are 2760 nM, 2890 nM, 1.3 and above 50000 nM.
The like results for `CN(C)[C@@H](COC(=O)OC[C@H]1O[C@@](C#N)(c2ccc3c(N)ncnn23)[C@H](O)[C@@H]1O)C(=O)OCC1CCCC1` [Compound 152, cyclopentylmethyl O-((((2R,3S,4R,5R)-5-(4-aminopyrrolo[2,1-f][1,2,4]triazin-7-yl)-5-cyano-3,4-dihydroxytetrahydrofuran-2-yl)methoxy)carbonyl)-N,N-dimethyl-L-serinate] were, in that order, 1280 nM, 3630 nM, 2.2 and above 50000 nM.
In the case of `CN(C)[C@@H](COC(=O)OC[C@H]1O[C@@](C#N)(c2ccc3c(N)ncnn23)[C@H](O)[C@@H]1O)C(=O)OC1CCCC1` [Compound 153, cyclopentyl O-((((2R,3S,4R,5R)-5-(4-aminopyrrolo[2,1-f][1,2,4]triazin-7-yl)-5-cyano-3,4-dihydroxytetrahydrofuran-2-yl)methoxy)carbonyl)-N,N-dimethyl-L-serinate], the 50% effective concentration (EC50) was 2670 nM in data set [1] (setting [8]) and 3240 nM in data set [3] (setting [9]). Also, the logD in the data set “physchem” is 1.7. Also, the cytotoxic concentration (CC50) in [5] was above 50000 nM.
